This note sets out measurements from patent US20160137982A1, “P38 MAPK INHIBITOR-CONTAINING MEDIUM AND METHOD FOR OSTEOGENIC DIFFERENTIATION” (TAMPEREEN YLIOPISTO, priority 2013, published 2016).

The test system of assay [1] is human adipose stem cells (hASCs). In words: Quantitative alkaline phosphatase (ALP) activity of hASCs, normalized to DNA, as early osteogenic marker. The format is cell-based. Here is the method:
(§1) The study was conducted in accordance with the ethics committee of the Pirkanmaa Hospital District, Tampere, Finland (R03058). ASCs were isolated from subcutaneous adipose tissue samples obtained with written informed consent from 4 female donors (age, 44±7 years) undergoing elective surgical procedures in the Department of Plastic Surgery, Tampere University Hospital, Tampere, Finland. Isolation of hASCs from adipose tissue samples was carried out by using a mechanical and enzymatic method. The adipose tissue was minced manually into small fragments and digested with collagenase NB 6 GMP Grade (SERVA Electrophoresis GmbH, Heidelberg, Germany) in a water bath at 37° C. under shaking conditions. The digested tissue was centrifuged and filtered in sequential steps through a 100-μm poresize filter to separate the ASCs from the surrounding tissue. Cells were expanded in T75 flasks and passaged after reaching 80% confluency. Expansion was done in DMEM/F-12 1:1 (Life Technologies, Gibco, Carlsbad, Calif., USA) supplemented with 1% l-analyl-l-glutamine (GlutaMAX I; Life Technologies, Gibco), 1% antibiotics (p/s; 100 U/ml penicillin, 0.1 mg/ml streptomycin; Lonza, BioWittaker, Verviers, Belgium) and 10% HS (PAA Laboratories). ASCs were detached by using TrypLE Select (LifeTechnologies, Gibco). Cell surface marker profile (FIG. 1) was analyzed using flow cytometry (FACSAria; BD Biosciences, Erembodegem, Belgium) as described in Patrikoski et al (2013).
The effect obtainable with the present medium and method was studied experimentally. The differentiation into osteogenic cells was analysed following alkaline phosphatase (ALP) as early osteogenic marker and mineralization as a marker for advanced osteogenic process. FIG. 2 illustrates protein expression of alkaline phosphatase (ALP) analysis in various media. Results have been normalized to the amount of DNA. BM denotes basal medium, SB a p38 MAP kinase inhibitor SB 202190 and OM an osteogenic medium. In FIG. 2A these differentiation media results (BM+SB and OM) were compared against BM as a control. In FIG. 2B and 2C results from two cell lines from different patients were analyzed in two time points (after 7 and 14 days) to show the independence on the source (patient-lines) of the present medium and inter-patient predictability in that sense. In these experiments, SB was used in a concentration of 2 μM.
In further experiments, the effect of a concentration gradient of two different p38 MAPK inhibitors, i.e. SB 202190 and JX401, on osteogenic differentiation of hASCs was analysed. First, the effect of SB202190 inhibitor in a concentration range of 2 to 10 μM on hASCs was studied in BM culture conditions. […] In this case, the analysis was performed both in BM and osteogenic medium (OM).
(§2) In the above experiments, the basal medium used was DMEM/F12+5% HSPaa serum. Said p38 MAP kinase inhibitor SB 202190 was from SigmaAldrich, while JX401 was from Calbiochem. Osteogenic medium representing the state of the art, was a base medium supplemented with L-ascorbic acid-2phosphate (AsAP), β-glycerolphosphate, and dexamethasone.

Assay [2] has the same test system. Put plainly: Quantitative Alizarin Red mineralization assay of hASCs. The note with it: for peak concentration (Alizarin Red mineralization): 2 or 5 μM tested. The format is cell-based. The procedure:
as §1
FIG. 3 represents quantitated Alizarin Red mineralization analysis of ASCs in basal medium, osteogenic medium, with and without SB inhibitor (2 μM) in time point 21 days.
To analyze how p38MAPK inhibitors affect the progression of osteogenic differentiation, Alizarin Red mineralization assay was performed both in BM and OM conditions. In both culture conditions, SB202190 inhibitor peaked at the concentration of 2 μM, but in OM also 5 μM was functional (FIG. 4C).
as §2

In the case of `Oc1ccc(-c2nc(-c3ccc(F)cc3)c(-c3ccncc3)[nH]2)cc1` [SB202190, 4-(4-Fluorophenyl)-2-(4-hydroxyphenyl)-5-(4-pyridyl)-1H-imidazole], the “ALP activity of hASCs” value in assay [1] (2 μM in BM, day 14, patient cell line 1/13 (FIG. 4A)) is reported as “clearly enhanced”; in assay [1] (5 μM in BM, day 14, patient cell line 1/13 (FIG. 4A)), “clearly enhanced”; in assay [1] (10 μM in BM, day 14, patient cell line 1/13 (FIG. 4A)), “diminished compared to the other two concentrations”. In addition, the “osteogenic differentiation (ALP) in basal medium compared with osteogenic medium” value in assay [1] (2 μM inhibitor in BM vs OM) is “almost equal level as with use of osteogenic medium”. In addition, the “detection of alkaline phosphatase marker / differentiation across patient cell lines” value in assay [1] (2 μM inhibitor, days 7 and 14, different patient cell lines) is on record as “detected in every patient cell line”. The “Alizarin Red mineralization with and without inhibitor” value in assay [2] (2 μM, day 21, patient cell line 41/12 (FIG. 3)) is recorded as “enhancer of advanced processes of osteogenesis”. Further, in assay [2] (5 μM in OM, day 14, patient cell line 11/13 (FIG. 4C)), the “Alizarin Red mineralization” value is reported as “functional”. Besides, the “peak concentration (Alizarin Red mineralization)” value in assay [2] (in BM, day 14, patient cell line 11/13 (FIG. 4C)) is 2 µM; in assay [2] (in OM, day 14, patient cell line 11/13 (FIG. 4C)) it was 2 µM.

Take `COc1cc(SC)ccc1C(=O)N1CCC(Cc2ccccc2)CC1` [JX401, 1-[2-Methoxy-4-(methylthio)benzoyl]-4-benzylpiperidine]: the “ALP activity of hASCs” value in assay [1] (2 μM in BM, days 7 and 14, patient cell line 15/12 (FIG. 4B)) was “effective as compared to the highest concentration”. Also, in assay [1] (in BM, 2/5/10 μM tested, days 7 and 14, patient cell line 15/12 (FIG. 4B)), the “functional concentration peak (ALP activity)” value came to 5 µM. Further, in assay [1] (in OM, 2/5/10 μM tested, days 7 and 14, patient cell line 15/12 (FIG. 4B)), the “most effective concentration (ALP activity)” value worked out at 2 µM.
